Measured values as given in patent publication US20260258048A1, “LACTAM-CONTAINING IMIDAZOPYRIDAZINE IL-17 INHIBITOR COMPOUNDS” (Janssen Pharmaceutica NV, priority 2023, published 2026).

Tests used:
[1] = test system: IL-17A-induced G-CSF production in human normal keratinocyte (NHK); assay: NHK assay: IL-17A-induced G-CSF production in normal human keratinocytes; assay type: cell-based; settings: Homo sapiens, Keratinocyte, 24 h, IL-17A 5 ng/mL, class of the average IC50 where tested more than once
Method in brief: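 Adult keratinocytes at 3000-4000 cells/well; recombinant human IL-17A pre-incubated 1 h at rt with titrated compound, then added to cells (final 5 ng/mL IL-17A, 0.2% DMSO, 5% FBS) for 24 h at 37 °C. Supernatant G-CSF quantified by HTRF against a standard curve to give IC50; viability checked by CellTiter-Glo versus DMSO.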

[2] = molecular target: IL-17A(FLAG-tagged): IL-17RA(His-tagged) (Homo sapiens, UniProt Q16552, K93Q); assay: IL-17A(FLAG-tagged): IL-17RA(His-tagged) binding disruption Eu-HTRF assay; settings: class of the average IC50 where tested more than once
Chain of UniProt Q16552 (Q16552 with tags, fused parts or gaps K93Q): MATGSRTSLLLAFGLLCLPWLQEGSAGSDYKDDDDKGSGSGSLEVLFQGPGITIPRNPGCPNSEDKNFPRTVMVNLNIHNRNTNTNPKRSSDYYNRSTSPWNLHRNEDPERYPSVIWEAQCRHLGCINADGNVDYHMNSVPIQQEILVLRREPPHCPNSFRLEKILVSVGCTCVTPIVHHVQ
Method in brief: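 Compound (22-point, 2-fold series) was pre-incubated 1 h at rt with FLAG-IL-17A, added as a 2× solution (1 μM). A 2× mix of C-terminal 10×His IL-17RA, Eu-anti-FLAG donor and D2-anti-His acceptor in PBS/0.01% Triton X-100/200 mM KF was then added for 2 h at rt. The 665/615 nm ratio was fitted to one-site competition for IC50.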

Row | SMILES | IC50 [1] [µM] | IC50 [2] [µM]
1 | O=C(N[C@H](c1cn2ncc(CC3CC4(CC4)NC3=O)cc2n1)C1CCC(F)(F)CC1)c1nonc1C1CC1 (stereo partly drawn) [Example 62, 4-Cyclopropyl-N-((1S)-(4,4-difluorocyclohexyl)(7-((5-oxo-4-azaspiro[2.4]heptan-6-yl)methyl)imidazo[1,2-b]pyridazin-2-yl)methyl)-1,2,5-oxadiazole-3-carboxamide] | > 4 | 0.4 to 4
2 | O=C(N[C@H](c1cn2ncc([C@@H](O)[C@H]3C[C@@H](C(F)(F)F)NC3=O)cc2n1)C1CCC(F)(F)CC1)c1nonc1C1CC1 [Example 74] | < 0.4 | < 0.4
3 | O=C(N[C@H](c1cn2ncc(CC3CC4(COC4)NC3=O)cc2n1)C1CCC(F)(F)CC1)c1nonc1C1CC1 (stereo partly drawn) [Example 98, 4-Cyclopropyl-N-((1S)-(4,4-difluorocyclohexyl)(7-((6-oxo-2-oxa-5-azaspiro[3.4]octan-7-yl)methyl)imidazo[1,2-b]pyridazin-2-yl)methyl)-1,2,5-oxadiazole-3-carboxamide] | > 4 | > 4
